Laboratory results published in US20100137429A1, “COMPOSITION FOR T[…] TRANSMUCOSAL ADMINISTRATION” (FUJIMOTO CO., LTD., priority 2007, published 2010).
Counter-ions that a name gives are not always drawn. Like-named read-outs stand apart in the source and are kept apart here.

Key:
[1] = Test Example 1: plasma level after single intravenous, subcutaneous and oral administration; format: in vivo, male SD rats; details: for bioavailability / Cmax / Tmax / AUC: rat, plasma, fasted male SD rats; for bioavailability: read-out: F (bioavailability); for AUC: trapezoidal method
Procedure: 0.5 mg/kg of the (−) isomer of the present compound (hydrochloride) (1 mL/kg of 0.5 mg/mL aqueous solution in physiological saline) was administered to the tail vein of each of male SD rats fasted since the previous day, and 5 minutes, 10 minutes, 20 minutes, 30 minutes, 45 minutes, 1 hour, 1.5 hours, 2 hours, 3 hours, 4 hours, and 6 hours after administration, whole blood was collected from the abdominal aorta.
(§1) 1 mg/kg of the (−) isomer of the present compound (hydrochloride) (5 mL/kg of 0.2 mg/mL aqueous solution) was administered subcutaneously to the back of the neck of each of male SD rats fasted since the previous day, and 5 minutes, 10 minutes, 20 minutes, 30 minutes, 1 hour, 1.5 hours, 2 hours, 3 hours, 4 hours, 6 hours, 8 hours and 10 hours after administration, whole blood was collected from the abdominal aorta.
as §1, with “10 mg/kg” for “1 mg/kg”, “(hydrochloride) (10” for “(hydrochloride) (5”, “of 1” for “of 0.2”, “administered forcedly orally” for “administered subcutaneously”, “to” for “to the back of the neck of each of”
The blood collected from each rat was transferred to a blood collecting tube containing 2Na EDTA, then sufficiently mixed by turning the tube upside down, and then centrifuged at 3,000 rpm for 10 minutes, and the obtained plasma was recovered. The plasma was freeze-preserved at −20° C. until analysis. The plasma level of the compound was measured by high performance liquid chromatography (HPLC). As a pharmacokinetic parameter, AUCO-t (area under the blood level-time curve, hereinafter referred to as “AUC”) was calculated by a trapezoidal method, and Cmax (maximum blood concentration) and tmax (time-to-maximum blood concentration) were determined from actual measurement values.

[2] = Test Example 4: plasma and brain homogenate concentrations after oral and intraoral administration; format: in vivo, male SD rats; details: rats
Procedure: The (−) isomer of the present compound (hydrochloride) was administered forcedly orally in a dose of 10 mg/kg (10 mL/kg of 1 mg/mL aqueous solution) to fasted male SD rats, and 5, 15, 30, 60 and 120 minutes after administration, whole blood was collected from the abdominal aorta.
The (−) isomer of the present compound (hydrochloride) was dropped in a dose of 1 mg/kg (0.1 mL/kg of 10 mg/mL aqueous solution) into the oral cavity of each fasted male SD rat anesthetized under ether. In the case of the powder preparation, the preparation which had been weighed so as to be in a dose of 1 mg/kg was placed beneath the tongue of each rat under anesthesia. In either case, the rats were left for 1 minute under anesthesia and then returned to cages, and 5, 15, 30, 60 and 120 minutes after administration, whole blood was collected from the abdominal aorta.
The blood collected from each rat was treated in the same manner as in Test Example 1. After blood collection, blood in the body of each rat was perfused with refrigerated physiological saline, and the cerebrum was excised therefrom. The cerebrum was cut thin with a knife and homogenized in 5 mL physiological saline added per gram of the tissues. 0.5 mL acetonitrile was added to 0.5 mL of the brain homogenate which was then stirred by means of a test tube mixer and centrifuged at 10,000 rpm for 5 minutes, to give a supernatant.
The concentrations of the compound in the plasma and in the brain homogenate were measured by LC/MS/MS. Simultaneously, the metabolites were quantitatively determined by using metabolite standards.

[3] = intraoral 1 mg/kg vs oral 10 mg/kg

With `CCCNC(CCC)Cc1cc2ccccc2o1` (single isomer, unassigned; (-)) [(−) isomer of the present compound (hydrochloride), (−)-1-(benzofuran-2-yl)-2-propylaminopentane] the “blood level in the oral administration” value ([1]; oral 10 mg/kg, rats) was “low as compared with the given dose”, the bioavailability ([1]; sc, subcutaneous, 1 mg/kg) was 144% and the bioavailability ([1]; oral, 10 mg/kg) was 4.1%. It also gave a Cmax ([1]; sc, subcutaneous, 1 mg/kg) of 135 ng/mL, a Tmax ([1]; sc, subcutaneous, 1 mg/kg) of 10.2 min and an AUC ([1]; sc, subcutaneous, 1 mg/kg) of 231 ng·h/mL. For the same molecule, the Cmax ([1]; intravenous, 0.5 mg/kg) was 94.1 ng/mL, the Tmax ([1]; intravenous, 0.5 mg/kg) was 4.8 min and the AUC ([1]; intravenous, 0.5 mg/kg) was 80 ng·h/mL. It also gave a Cmax ([1]; oral, 10 mg/kg) of 86.9 ng/mL, a Tmax ([1]; oral, 10 mg/kg) of 10.2 min and an AUC ([1]; oral, 10 mg/kg) of 65.4 ng·h/mL. For the same molecule, the “blood concentration in intraoral administration compared with oral administration” value ([2]; intraoral 1 mg/kg (aqueous solution, powder preparation) vs oral 10 mg/kg) was “equal to or higher than that in the oral administration”, the “metabolites in intraoral administration compared with oral administration” value [2, 3] was “lower metabolites” and the “transferability of the compound to the brain (concentration in the brain homogenate)” value [2, 3] was “significantly higher than in the oral administration”.
